In ChEMBL document CHEMBL5226314, “Discovery, Structure-Activity Relationship, and Mechanistic Studies of 1-((3R,4S)-3-((Dimethylamino)methyl)-4-hydroxy-4-(3-methoxyphenyl)piperidin-1-yl)-2-(2,4,5-trifluorophenyl)ethan-1-one as a Novel Potent Analgesic” (J Med Chem, 2021):
pKi: −log10 of the molar value.

Assays:
Homo sapiens [1] = species: Homo sapiens; assay: Selectivity ratio of Ki for DOR (unknown origin) to Ki for MOR (unknown origin)
Homo sapiens [2] = species: Homo sapiens; assay: Selectivity ratio of Ki for KOR (unknown origin) to Ki for MOR (unknown origin)
[3] = target: Kappa-type opioid receptor (Homo sapiens, UniProt P41145); assay: Displacement of [3H]U69593 from human KOR expressed in CHO cell membranes incubated for 30 mins by liquid scintillation counting method
[4] = target: Delta-type opioid receptor (Homo sapiens, UniProt P41143); assay: Displacement of [3H]-DPDPE from human DOR expressed in CHO cell membranes measured after 2 hrs by microbeta scintillation counting method
Mu-type opioid receptor = Mu-type opioid receptor (Mus musculus, UniProt P42866); assay: Displacement of [3H] DAMGO from mouse MOR expressed in CHO cell membrane incubated for 90 mins by scintillation method; assay type: cell membranes
Mus musculus = assay: Antinociceptive activity in CD-1 mouse at 10 mg/kg, ip; assay type: functional

Sequence of Mu-type opioid receptor (P42866 whole entry): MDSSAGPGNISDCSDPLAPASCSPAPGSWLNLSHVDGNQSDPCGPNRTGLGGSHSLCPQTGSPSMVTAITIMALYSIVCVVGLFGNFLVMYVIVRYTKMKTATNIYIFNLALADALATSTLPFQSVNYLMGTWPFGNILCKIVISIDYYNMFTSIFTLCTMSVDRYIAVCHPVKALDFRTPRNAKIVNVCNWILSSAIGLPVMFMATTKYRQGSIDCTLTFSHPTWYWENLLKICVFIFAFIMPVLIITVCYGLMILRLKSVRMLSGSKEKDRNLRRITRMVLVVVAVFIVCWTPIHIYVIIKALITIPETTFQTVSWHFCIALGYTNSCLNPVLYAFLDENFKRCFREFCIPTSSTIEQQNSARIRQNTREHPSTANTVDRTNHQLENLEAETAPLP
Sequence of Delta-type opioid receptor (P41143 whole entry): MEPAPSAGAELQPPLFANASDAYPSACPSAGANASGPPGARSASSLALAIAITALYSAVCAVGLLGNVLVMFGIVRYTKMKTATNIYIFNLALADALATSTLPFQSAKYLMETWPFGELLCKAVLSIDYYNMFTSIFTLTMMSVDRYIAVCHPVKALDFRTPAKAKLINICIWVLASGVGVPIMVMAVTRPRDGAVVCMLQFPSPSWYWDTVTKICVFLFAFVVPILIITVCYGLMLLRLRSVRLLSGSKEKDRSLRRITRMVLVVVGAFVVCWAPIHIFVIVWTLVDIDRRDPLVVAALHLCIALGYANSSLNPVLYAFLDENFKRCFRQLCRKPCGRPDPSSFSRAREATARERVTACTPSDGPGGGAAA
Sequence of Kappa-type opioid receptor (P41145 whole entry): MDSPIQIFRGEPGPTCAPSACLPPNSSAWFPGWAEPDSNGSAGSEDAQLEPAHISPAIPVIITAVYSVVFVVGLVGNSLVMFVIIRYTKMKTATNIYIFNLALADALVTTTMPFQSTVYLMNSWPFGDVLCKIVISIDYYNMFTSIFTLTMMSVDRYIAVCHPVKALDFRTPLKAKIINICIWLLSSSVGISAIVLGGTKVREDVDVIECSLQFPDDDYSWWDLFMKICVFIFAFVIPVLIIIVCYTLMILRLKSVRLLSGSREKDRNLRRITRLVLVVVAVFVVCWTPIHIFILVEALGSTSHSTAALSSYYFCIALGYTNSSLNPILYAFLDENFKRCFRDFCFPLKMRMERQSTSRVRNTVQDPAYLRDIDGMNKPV

| SMILES | Selectivity ratio (Homo sapiens [1]) | Selectivity ratio (Homo sapiens [2]) | pKi [3] | pKi [4] | pKi (Mu-type opioid receptor) | MPE (Mus musculus) [%] |
| --- | --- | --- | --- | --- | --- | --- |
| COc1cccc(C2(O)CCN(CCc3cccc(C(F)(F)F)c3)CC2CN(C)C)c1 (stereo not drawn) | 53.7 | 16.2 | 6.17 | 5.65 | 7.38 |  |
| CN(C)CC1CN(C(=O)CCc2ccccc2C(F)(F)F)CCC1(O)c1cccc(O)c1 (stereo not drawn) | 48.9 | 42 | 6.79 | 6.72 | 8.41 |  |
| Cc1ccccc1CC(=O)N1CCC(O)(c2cccc(O)c2)C(CN(C)C)C1 (stereo not drawn) | 20.4 | 15 | 6.64 | 6.51 | 7.82 |  |
| COc1cccc(C2(O)CCN(C(=O)Cc3cccc(Cl)c3)CC2CN(C)C)c1 (stereo not drawn) | 67.6 | 41.7 |  |  | 7.62 | 86.4 |
| COc1cccc(C2(O)CCN(C(=O)Cc3cccc(F)c3)CC2CN(C)C)c1 (stereo not drawn) | 29 | 28.6 |  |  | 7.08 | 88.4 |
| COc1cccc(C2(O)CCN(C(=O)Cc3cccc([N+](=O)[O-])c3)CC2CN(C)C)c1 (stereo not drawn) | > 117 | 23.2 |  | < 6.00 | 7.07 | 72.9 |
| COc1cccc(C2(O)CCN(C(=O)Cc3c[nH]c4ccccc34)CC2CN(C)C)c1 (stereo not drawn) | > 43.3 | 26.8 |  | < 5.30 | 6.94 | 67 |
| CN(C)CC1CN(C(=O)Cc2ccccc2)CCC1(O)c1cccc(O)c1 (stereo not drawn) | 49.8 | 28.2 | 6.77 | 6.53 | 8.22 |  |
| COc1cccc(C2(O)CCN(C(=O)Cc3cc(C(F)(F)F)cc(C(F)(F)F)c3)CC2CN(C)C)c1 (stereo not drawn) | 73.6 | 175 |  |  | 7.60 | 17.8 |
| COc1cccc(C2(O)CCN(C(=O)Cc3ccc4ccccc4c3)CC2CN(C)C)c1 (stereo not drawn) | > 122 | 32.5 |  | < 6.00 | 7.09 | 0 |
| CN(C)CC1CN(C(=O)CCc2ccccc2)CCC1(O)c1cccc(O)c1 (stereo not drawn) | 399 | 927 | 6.19 | 6.55 | 9.15 |  |
| Cc1cccc(CC(=O)N2CCC(O)(c3cccc(O)c3)C(CN(C)C)C2)c1 (stereo not drawn) | 5.8 | 7.6 | 7.13 | 7.25 | 8.01 |  |
| CN(C)CC1CN(C(=O)Cc2ccc(OC(F)(F)F)cc2)CCC1(O)c1cccc(O)c1 (stereo not drawn) | 7.4 | 2.1 | 7.03 | 6.48 | 7.35 |  |
| CN(C)CC1CN(C(=O)Cc2cccc(F)c2)CCC1(O)c1cccc(O)c1 (stereo not drawn) | 57.4 | 77 | 6.77 | 6.90 | 8.66 |  |
| CN(C)CC1CN(C(=O)Cc2cccc(OC(F)(F)F)c2)CCC1(O)c1cccc(O)c1 (stereo not drawn) | 15.9 | 33.6 | 7.03 | 7.35 | 8.55 |  |
| COc1cccc(C2(O)CCN(C(=O)Cc3cccc4ccccc34)CC2CN(C)C)c1 (stereo not drawn) | 6.1 | 4.8 |  |  | 6.45 | 78.7 |
| COc1cccc(C2(O)CCN(C(=O)Cn3ccc4ccccc43)CC2CN(C)C)c1 (stereo not drawn) | 16.1 | 55.6 |  |  | 7.14 | 54.2 |
| COc1cccc(C2(O)CCN(C(=O)Cc3ccc(Cl)c(Cl)c3)CC2CN(C)C)c1 (stereo not drawn) | 11.6 | 4.2 |  |  | 7.16 | 70.7 |
| COc1cccc(C2(O)CCN(C(=O)C3(c4ccccc4)CCC3)CC2CN(C)C)c1 (stereo not drawn) | 3.2 | 0.9 |  |  | 6.65 | 5 |
| CN(C)CC1CN(C(=O)Cc2ccccc2)CCC1(O)c1ccccc1 (stereo not drawn) | 50.1 | 45.4 | 5.89 | 5.85 | 7.55 |  |
